# Where a name gives a salt, the structure may show the parent alone.
# Assays:
# [1] = Solubility of RPL554 salts in saline solutions, water and aqueous buffer solutions at 25° C. (HPLC); type: physicochemical; conditions: 24 hours, hydrobromide
# Protocol: The behaviour of salts of RPL554 were examined under the following conditions: • Phosphate buffered to pH 3.5 in saline, 0.9% w/w at 25° C. • Acetate buffered to pH 4.5 in saline, 0.9% w/w at 25° C. • Citro-Phosphate buffered to pH 4.5 in saline, 0.9% w/w at 25° C. • Phosphate buffered to pH 6.5 in saline, 0.9% w/w at 25° C. • Saline, 0.7, 0.9 and 1.1% w/w at 25° C. • Deionised water at 25° C.
# RPL554 salts and RPL554, ca 50 mg, were suspended in the various aqueous media, 1 ml, with agitation at the specified temperatures for 24 hours. The solids were isolated and dried in vacuo at 45° C. The retained filtrates were examined by HPLC.
# Additional RPL554 methane sulfonate salt, ca 50 mg, was charged to the water mixtures at 25° C. and 37.5° C. in order to afford a suspension. In all other cases, suspensions were obtained.
# The solubility of the RPL554 was determined by HPLC using a single point calibration and is expressed as RPL554 and not as the salt and are detailed in Table 6 and Table 7 for the various conditions utilised.
# [2] = Intrinsic dissolution of compressed tablet, pH 7.0, 37° C. (Sirius inForm); type: physicochemical; conditions: pH 7.0, 0.15 M NaCl, 37° C.; listed as hydrobromide salt, hydrobromide
# Protocol: The dissolution assay (pH-dependent sample dissolution) was investigated using the Sirius inForm.
# Dissolution of a compressed tablet of the compound was monitored in a pH 7.0 aqueous dissolution experiment (0.15 M NaCl) at 37° C. using UV-absorption spectroscopy in 2 hour experiments. A tablet with a diameter of 3 mm, requiring approximate weights of 10 mg was compressed under a weight of 100 kg load force. Only one face of the tablet was exposed to the dissolution medium, which contained a 0.01 M acetate/phosphate buffer system to minimise perturbation of the experimental pH from dissolution of the drug.
# Stirring of the solution was continuous and at a constant rate of 100 rpm. The absorption data was converted to absolute sample weights using previously determined, pH-dependent, molar extinction coefficients. An appropriate wavelength range was chosen to ensure that spectroscopic data with an absorption value of <1.3 was analysed, avoiding erroneous dissolution results due to saturation of the UV light source.
# [3] = Primary particle size analysis by laser light diffraction (Mastersizer 2000); type: physicochemical; conditions: micronised, mean n=3; hydrobromide
# Protocol: A Mastersizer 2000 fitted with a Scirocco 2000 dry powder dispersion unit (Malvern Instruments Ltd, UK) was used to analyse the primary particle size of the micronised RPL554 and salt variants. The salts (50 mg) were automatically sampled via a vibrating feed control at a feeder rate of 60% and dispersed in compressed air at a pressure of 3 bar.
# [4] = Solubility of RPL554 and salts in pMDI propellant systems; type: physicochemical; conditions: hydrobromide
# Protocol: Quantitative assessment of the solubility of RPL554 and salt variants in the propellant systems of selected pMDI formulations (three replicates of each formulation) was performed. pMDIs were directly coupled to an adaptor fitted with a 0.20 μm filter unit connected, in series to a 21 G needle, which was inserted via a rubber septum, into a cooled multi-dose glass vial. A 19 G filter needle was inserted through the septum to aid evaporation of propellant from the vial. Prior to the filtration process the vial was cooled in a mixture of dry ice and acetone to ensure that the pressure within the vial was reduced in order to facilitate collection of the output from the pMDI. Ten consecutive actuations of the pMDI were fired through the filter and collected in the vial. Between actuations the canister was shaken for approximately 10 seconds. The pMDI unit was weighed before and after the filtering procedure. The filtrate was stored at room temperature and allowed to evaporate to dryness.
# Samples were recovered by carefully rinsing the inside of the vials with 1 mL of recovery solution before transfer to HPLC vials for analysis. The estimated % of RPL554 solubilised within the canister was calculated from the starting mass of RPL554 within the canisters, which in turn was calculated using the theoretical molecular weight values of the RPL554 free base and salt variants shown in Table 13. The theoretical molecular weight estimates of the salts were provided by Verona.
# [5] = RPL554 content and content uniformity of 1% w/w lactose powder blends; type: physicochemical; conditions: hydrobromide
# Protocol: Batches (approximately 5 g) of 1% w/w RPL554 free base or salt variants: lactose blends were prepared. In brief, the RPL554 free base or salt plus a small quantity of lactose was passed through a 38 μm sieve. The sieved material plus the remaining lactose was mixed in a glass mortar prior to transfer to a stainless steel screw cap jar and further mixing (10 minutes at 46 rpm) conducted using a Turbula blender. The composition of the dry powder blend was 0.05 g API and 4.95 g lactose.
# In order to determine the content uniformity of the blends, aliquots (approx. 20 mg) of powder were sampled from each blend, accurately weighed, and diluted to volume in 10 mL volumetric flasks with diluent. The flasks were sonicated for 3 minutes before samples were transferred to HPLC vials for analysis.
# [6] = Aerosol performance of DPI formulations (Cyclohaler, NGI); type: physicochemical; conditions: hydrobromide
# Protocol: Capsules were hand filled with 20 mg of the 1% w/w RPL554 free base or salt variants: lactose blends, i.e. 200 μg salt per capsule, the fill weight of each capsule was recorded. Due to differences in the molecular weights of the RPL554 salt forms, the amount of RPL554 emitted per actuation varied as a function of molecular weight. The formulations were prepared with no adjustment for differences in molecular weight of the salts.
# The powders were delivered via the Cyclohaler® DPI (PCH Pharmachemie, BV, The Netherlands). The Cyclohaler® DPI is a low resistance device and was operated at a flow rate of 90 L/min for 2.7 seconds. The cut off diameters for the NGI collection stages were calculated for the 90 L/min flow rate using the NGI User Guide (MSP Corporation, 2008).
# The ED, FPD and FPF were determined from inertial impaction tests performed following the deposition of 5 capsules of each formulation into the NGI. For each capsule tested the combined weight of the Cyclohaler® and capsule was determined before and after operation to check that the dose had been delivered. The NGI was fitted with a pre-separator for these determinations. The central cup of the pre-separator was filled with 15 mL of diluent. Following deposition, the solution was recovered in a 20 mL volumetric flask and made up to volume with diluent. RPL554 was quantitatively recovered from the device, induction port and each of the NGI collection stages with 10 mL of diluent.
# The volume of diluent used for each sample was selected to ensure RPL554 concentrations were above the limit of quantitation.
# [7] = Physico-chemical characteristics of salt candidates: solubility in water, pH of aqueous suspension/solution, form post water maturation; conditions: listed as HBr, hydrobromide
# Protocol: The physico-chemical characteristics of the salt candidates were determined.
structure (smiles),measurement,setting,value
"COc1cc2c(cc1OC)-c1c/c(=N\c3c(C)cc(C)cc3C)n(CCNC(N)=O)c(=O)n1CC2 [Hydrobromide, RPL554 hydrobromide]",Solubility as RPL554 (mg/ml) in 0.7 w/w % Saline,[1],0.95 mg/mL
same,Solubility as RPL554 (mg/ml) in 0.9 w/w % Saline,[1],0.82 mg/mL
same,Solubility as RPL554 (mg/ml) in 1.1 w/w % Saline,[1],0.66 mg/mL
same,Solubility as RPL554 (mg/ml) in Water,[1]; deionised water,3.43 mg/mL
same,"Mass of salt (μg) dissolved after 2 hours, Average",[2],35.3 µg
same,"Mass of salt (μg) dissolved after 2 hours, Test 1",[2],30.4 µg
same,"Mass of salt (μg) dissolved after 2 hours, Test 2",[2],40.1 µg
same,D (0.1) (μm),[3],0.64 μm
same,D (0.5) (μm),[3],1.52 μm
same,D (0.9) (μm),[3],3.23 μm
same,Solubility RPL554 (μg/g),"[4]; in HFA 134, BLQ = below limit of quantitation (0.06 μg/mL)",BLQ
same,Calculated RPL554 solubilised (%),[4]; in HFA 134,BLQ
same,Calculated Solubilised RPL554 μg per 50 μL actuation,[4]; in HFA 134,BLQ
same,Estimated RPL554 solubilised (%),[4]; in HFA 134 with Ethanol/Tween,3.74%
same,Estimated Solubilised RPL554 μg per 50 μL actuation,[4]; in HFA 134 with Ethanol/Tween,6.40 µg
same,Solubility RPL554,[4]; in HFA 134 with Ethanol/Tween,96.27 µg/g
same,Measured Blend Content (% Theoretical),"[5]; 1% w/w RPL554 variant: lactose powder blend, expressed as RPL554 base",83.37 % Theoretical
same,**Adjusted RPL554 Content per capsule,"[5]; per 20 mg capsule of 1% w/w lactose blend, adjusted for measured blend content (% theoretical), as RPL554 base",142.58 µg
same,†Measured Mass of 1% w/w Blend Delivered per capsule,"[6]; Cyclohaler, 5 capsules containing 20 mg powder blend, mass from weight change of capsule-loaded device",19.96 mg
same,††RPL554 Emitted (μg) per capsule (B),"[6]; Cyclohaler, NGI, mass determined from HPLC analysis of recovered samples, as RPL554 base",104.28 µg
same,Calculated RPL554 Content (μg) per capsule (A),"[6]; calculated from delivered blend mass and measured blend content, as RPL554 base",142.29 µg
same,pH of aqueous suspension/solution,[7],3.20
